Experimental findings from ChEMBL document CHEMBL1201862, “PubChem BioAssay data set” (2004) are described below.

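All cell lines were grown in 96-well plates and treated with compound for 48 hours. GI50 = concentration required for 50% inhibition of growth.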 Calls of active or inactive are those of the source. Cut-off read from the data, not from the text of the source: active = GI50 up to about 1.1 µM and inactive = higher.

Among the test systems are 786-0; ACHN; CAKI-1; HCT-116; LOX IMVI; MDA-MB-231; MDA-MB-435; MDA-N; Malme-3M; NCI-H23; NCI-H460; NCI/ADR-RES; OVCAR-3; SF-268; SK-MEL-5; SN12C; SR; SW-620; UACC-62; NCI-H226.
Holding throughout (assay): NCI tumour cell line growth inhibition, 48 h

For `Nc1ccc2c(c1)nc1n2C(c2c(F)cccc2F)SC1` (configuration not stated), the GI50 in the experiment on 786-0 is > 100 µM (inactive); with ACHN, > 100 µM (inactive); in the experiment on CAKI-1 it was 53.7 µM (inactive); with HCT-116 it was > 100 µM (inactive); with LOX IMVI it was > 100 µM (inactive); with MDA-MB-231 it was > 100 µM (inactive). The GI50 in the experiment on MDA-MB-435, with MDA-N, with Malme-3M, in the experiment with NCI-H23, in the experiment with NCI-H460 and with NCI/ADR-RES was > 100 µM (inactive) each time. Moreover, the GI50 in the experiment with OVCAR-3 is > 100 µM (inactive); with SF-268, > 100 µM (inactive); in the experiment with SK-MEL-5, 47.8 µM (inactive); in the experiment on SN12C, > 100 µM (inactive); in the experiment with SR, > 100 µM (inactive); in the experiment on SW-620, > 100 µM (inactive). For the same molecule, the GI50 with UACC-62 is > 100 µM (inactive).
With `O=C(O)c1ccc2c(c1)CC1(C2)Cc2ccccc2C1=O` (configuration not stated), the GI50 in the experiment with 786-0, in the experiment on ACHN, with HCT-116, with LOX IMVI, with MDA-MB-231 and with MDA-MB-435 was > 100 µM (inactive) each time. The GI50 in the experiment with MDA-N, in the experiment on Malme-3M, with NCI-H226, with NCI-H23, in the experiment on NCI-H460 and with NCI/ADR-RES was > 100 µM (inactive) each time. Moreover, the GI50 in the experiment with OVCAR-3, in the experiment with SF-268, in the experiment with SK-MEL-5, in the experiment on SN12C, in the experiment on SR and with SW-620 was > 100 µM (inactive) throughout. In addition, the GI50 in the experiment with UACC-62 was > 100 µM (inactive).
Consider `CC(=O)OCC1OC(c2nc3ccccc3s2)=CC(OC(C)=O)C1OC(C)=O` (configuration not stated), for which the GI50 with 786-0 is > 100 µM (inactive); in the experiment on ACHN, > 100 µM (inactive); in the experiment with CAKI-1, > 100 µM (inactive); in the experiment with HCT-116, 57.5 µM (inactive); with LOX IMVI it was > 100 µM (inactive); with MDA-MB-231, > 100 µM (inactive). The GI50 in the experiment with MDA-MB-435, with MDA-N, in the experiment on Malme-3M, in the experiment with NCI-H226, in the experiment on NCI-H23 and in the experiment on NCI-H460 was > 100 µM (inactive) throughout. Further, the GI50 in the experiment on NCI/ADR-RES is > 100 µM (inactive); in the experiment with OVCAR-3, > 100 µM (inactive); with SF-268, 43.6 µM (inactive); in the experiment with SK-MEL-5, > 100 µM (inactive); with SN12C, > 100 µM (inactive); with SR, 41.1 µM (inactive). The GI50 in the experiment with SW-620 is > 100 µM (inactive).
With `CC(C)(CCC(C)(C)N1OC1c1ccccc1)N1OC1c1ccccc1` (configuration not stated), the GI50 in the experiment with 786-0 is 54.1 µM (inactive); in the experiment on ACHN, 19.8 µM (inactive); with CAKI-1 it was 23.4 µM (inactive); in the experiment with HCT-116, 56.8 µM (inactive); with LOX IMVI, 26.4 µM (inactive); with MDA-MB-231, 26.4 µM (inactive). In addition, the GI50 in the experiment with MDA-MB-435 is 32.8 µM (inactive); with MDA-N, 39.9 µM (inactive); in the experiment on Malme-3M, > 100 µM (inactive); in the experiment with NCI-H226, 76.9 µM (inactive); in the experiment with NCI-H23, 55.3 µM (inactive); in the experiment with NCI-H460, 33 µM (inactive). Further, the GI50 with NCI/ADR-RES was 58.6 µM (inactive); in the experiment on SF-268, 95.1 µM (inactive); with SK-MEL-5, 17.5 µM (inactive); with SN12C, > 100 µM (inactive); in the experiment with SR, 14.1 µM (inactive); with SW-620, 78 µM (inactive). In addition, in the experiment with UACC-62, the GI50 is > 100 µM (inactive).
For `CCN(CC)CCCNc1nnc(C)c2[nH]c3ccccc3c12`, the GI50 in the experiment on 786-0 was 18.2 µM (inactive); in the experiment with ACHN, 18 µM (inactive); with CAKI-1 it was > 100 µM (inactive); with HCT-116 it was 5.36 µM (inactive); in the experiment with LOX IMVI, 7.46 µM (inactive); in the experiment on MDA-MB-231, 11.4 µM (inactive). Besides, the GI50 with MDA-MB-435 is 11.6 µM (inactive); in the experiment on MDA-N, 13.7 µM (inactive); in the experiment with Malme-3M, 15.1 µM (inactive); in the experiment on NCI-H23 it was 15.5 µM (inactive); with NCI-H460, 8.13 µM (inactive); in the experiment on NCI/ADR-RES, > 100 µM (inactive). Moreover, the GI50 in the experiment with OVCAR-3 was 11.7 µM (inactive); in the experiment on SF-268 it was 8.73 µM (inactive); in the experiment on SK-MEL-5, 14.6 µM (inactive); with SN12C it was 12.7 µM (inactive); with SR, 7.13 µM (inactive); in the experiment with SW-620, 9.2 µM (inactive). Moreover, the GI50 in the experiment with UACC-62 is 13.7 µM (inactive).
In the case of `Cc1cc(C)n(CN(Cn2nc(C)cc2C)c2ccccc2)n1`, the GI50 in the experiment on 786-0 is 21.4 µM (inactive); with ACHN, 18.4 µM (inactive); with CAKI-1, 20.4 µM (inactive); in the experiment with HCT-116 it was 19.8 µM (inactive); with LOX IMVI it was 1.5 µM (inactive); in the experiment with MDA-MB-231 it was 37.6 µM (inactive). Also, the GI50 in the experiment on MDA-MB-435 was 13.7 µM (inactive); in the experiment on MDA-N it was 14.5 µM (inactive); in the experiment with Malme-3M it was 22.8 µM (inactive); in the experiment on NCI-H23, 18.1 µM (inactive); in the experiment with NCI-H460, 35.1 µM (inactive); with NCI/ADR-RES it was 20.8 µM (inactive). Moreover, the GI50 with OVCAR-3 was 30.5 µM (inactive); in the experiment with SF-268 it was 20.4 µM (inactive); in the experiment with SK-MEL-5, 20.4 µM (inactive); in the experiment with SN12C, 35.1 µM (inactive); in the experiment with SR, 0.217 µM (active); with SW-620, 18.2 µM (inactive). For the same molecule, the GI50 with UACC-62 is 10.6 µM (inactive).
Turning to `CCCCc1ccc(-n2sc3ncccc3c2=O)cc1`, the GI50 in the experiment on 786-0 was 9.42 µM (inactive); in the experiment with ACHN, 11.4 µM (inactive); in the experiment with HCT-116, 11.6 µM (inactive); in the experiment on LOX IMVI it was 5.66 µM (inactive); in the experiment on MDA-MB-231, 15.6 µM (inactive); in the experiment with MDA-MB-435, 16.3 µM (inactive). Also, the GI50 was 13.9 µM (inactive) with MDA-N; 3.96 µM (inactive) in the experiment on Malme-3M; 7.67 µM (inactive) with NCI-H226; 15.9 µM (inactive) in the experiment with NCI-H23; 5.26 µM (inactive) with NCI-H460; 14.4 µM (inactive) with NCI/ADR-RES. The GI50 in the experiment on OVCAR-3 was 10.2 µM (inactive); with SF-268 it was 8.75 µM (inactive); in the experiment with SK-MEL-5 it was 11.3 µM (inactive); in the experiment with SN12C, 16.4 µM (inactive); with SR, 4.72 µM (inactive); in the experiment with SW-620, 13.9 µM (inactive). For the same molecule, in the experiment on UACC-62, the GI50 is 12.4 µM (inactive).
`Clc1ccccc1/C=C/c1nsc(/C=C/c2ccccc2Cl)n1`: the GI50 is 19 µM (inactive) in the experiment with 786-0; 50.4 µM (inactive) in the experiment with ACHN; > 100 µM (inactive) in the experiment on CAKI-1; 34.8 µM (inactive) with HCT-116; 37.2 µM (inactive) in the experiment with LOX IMVI; 60 µM (inactive) in the experiment with MDA-MB-231. For the same molecule, the GI50 in the experiment on MDA-MB-435 was 42.6 µM (inactive); in the experiment on MDA-N, 35 µM (inactive); with Malme-3M, 53.7 µM (inactive); with NCI-H226, > 100 µM (inactive); in the experiment with NCI-H460, 21.4 µM (inactive); in the experiment on NCI/ADR-RES it was 45.2 µM (inactive). For the same molecule, the GI50 is 40.1 µM (inactive) with OVCAR-3; 55.5 µM (inactive) in the experiment with SF-268; 36.1 µM (inactive) with SK-MEL-5; 23.6 µM (inactive) in the experiment on SN12C; 22.1 µM (inactive) with SR.
For the molecule `CCOC(=O)C1C(c2ccc(OC)cc2)c2c(nn(-c3ccccc3)c2O)CC1(O)OCC` (configuration not stated), the GI50 with 786-0 was 63.4 µM (inactive); in the experiment with ACHN, 25.4 µM (inactive); in the experiment with CAKI-1, > 100 µM (inactive); in the experiment with HCT-116, 23.7 µM (inactive); in the experiment on LOX IMVI it was 0.597 µM (active); in the experiment with MDA-MB-231, 39.9 µM (inactive). Moreover, the GI50 is 4.02 µM (inactive) in the experiment on MDA-MB-435; 8.63 µM (inactive) in the experiment on MDA-N; 75.5 µM (inactive) with Malme-3M; > 100 µM (inactive) in the experiment with NCI-H23; 6.75 µM (inactive) with NCI-H460; > 100 µM (inactive) in the experiment with NCI/ADR-RES. Moreover, the GI50 in the experiment on OVCAR-3 was > 100 µM (inactive); in the experiment on SF-268, > 100 µM (inactive); in the experiment with SK-MEL-5, 26.6 µM (inactive); in the experiment with SN12C it was > 100 µM (inactive); with SR it was 2.17 µM (inactive); with SW-620, 27.5 µM (inactive). For the same molecule, the GI50 in the experiment with UACC-62 is 7.67 µM (inactive).
As to `N#Cc1c(-c2ccc(Cl)cc2)c2c(n(C3OC(CO)C(O)C(O)C3O)c1=S)CCC2` (configuration not stated), the GI50 with 786-0 is 30.9 µM (inactive); with ACHN it was 33 µM (inactive); in the experiment on CAKI-1 it was 30.2 µM (inactive); in the experiment with HCT-116 it was 34.4 µM (inactive); in the experiment with LOX IMVI, 16.9 µM (inactive); in the experiment with MDA-MB-231, 36.9 µM (inactive). Besides, the GI50 is 19.8 µM (inactive) in the experiment on MDA-MB-435; 34.5 µM (inactive) in the experiment with MDA-N; 26.2 µM (inactive) in the experiment with Malme-3M; 25.4 µM (inactive) in the experiment on NCI-H23; 33 µM (inactive) with NCI-H460; 61.2 µM (inactive) with NCI/ADR-RES. Further, the GI50 in the experiment on OVCAR-3 is 28 µM (inactive); in the experiment with SF-268, 29 µM (inactive); in the experiment with SK-MEL-5, 13.3 µM (inactive); in the experiment with SN12C, 33.9 µM (inactive); with SR, 47 µM (inactive); in the experiment with SW-620 it was 20.4 µM (inactive). Besides, the GI50 in the experiment with UACC-62 is 17.1 µM (inactive).
In the case of `CC(C)OCC(O)COc1cc(=O)oc2ccccc12` (configuration not stated), the GI50 in the experiment with 786-0, in the experiment on ACHN, in the experiment on CAKI-1, in the experiment on HCT-116, with LOX IMVI and in the experiment with MDA-MB-231 was > 100 µM (inactive) throughout. Also, the GI50 in the experiment with MDA-MB-435, with MDA-N, with Malme-3M, with NCI-H23, in the experiment on NCI-H460 and in the experiment on NCI/ADR-RES was > 100 µM (inactive) in each case. Further, the GI50 with OVCAR-3, with SF-268, in the experiment on SK-MEL-5, in the experiment with SN12C, with SR and with SW-620 was > 100 µM (inactive) each time. The GI50 with UACC-62 is > 100 µM (inactive).
